Publication PMC3914206

Experiments:
[1] = target: T1, panel of 442 kinases (Homo sapiens, UniProt P36888, R834Q); type: binding; conditions: Compound Concentration 10 µM
T1 construct: purchased KINOMEscan
T1 sequence (P36888 27-993 R834Q): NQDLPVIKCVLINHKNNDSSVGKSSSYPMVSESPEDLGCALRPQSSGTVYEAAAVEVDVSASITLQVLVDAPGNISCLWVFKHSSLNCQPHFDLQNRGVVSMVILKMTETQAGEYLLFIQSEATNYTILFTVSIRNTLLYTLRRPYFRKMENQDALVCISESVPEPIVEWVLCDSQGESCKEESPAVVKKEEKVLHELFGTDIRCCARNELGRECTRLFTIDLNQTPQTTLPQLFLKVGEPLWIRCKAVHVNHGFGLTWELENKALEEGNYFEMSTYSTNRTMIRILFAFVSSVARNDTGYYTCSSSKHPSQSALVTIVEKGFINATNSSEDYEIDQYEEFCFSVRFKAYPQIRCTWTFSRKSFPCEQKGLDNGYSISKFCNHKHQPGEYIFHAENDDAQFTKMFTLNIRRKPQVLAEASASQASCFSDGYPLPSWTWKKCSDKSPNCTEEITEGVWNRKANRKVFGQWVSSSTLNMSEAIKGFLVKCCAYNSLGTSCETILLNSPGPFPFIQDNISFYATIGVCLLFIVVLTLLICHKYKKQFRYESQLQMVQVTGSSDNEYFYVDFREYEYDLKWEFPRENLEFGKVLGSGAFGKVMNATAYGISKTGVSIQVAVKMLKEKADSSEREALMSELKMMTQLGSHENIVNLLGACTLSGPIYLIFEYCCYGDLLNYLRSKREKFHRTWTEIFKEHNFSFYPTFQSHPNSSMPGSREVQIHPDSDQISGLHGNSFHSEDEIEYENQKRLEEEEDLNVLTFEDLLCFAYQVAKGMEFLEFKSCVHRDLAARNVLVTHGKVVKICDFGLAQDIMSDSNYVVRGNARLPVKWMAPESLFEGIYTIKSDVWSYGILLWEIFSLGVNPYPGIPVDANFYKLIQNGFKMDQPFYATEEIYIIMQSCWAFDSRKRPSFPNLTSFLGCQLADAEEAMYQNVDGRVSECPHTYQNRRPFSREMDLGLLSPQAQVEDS
Text: (§1) We assessed the selectivity of members of this scaffold using the KINOMEscan methodology across a near comprehensive panel of 442 kinases [[18,27]].

[2] = target: T2, panel of 442 kinases (Homo sapiens, UniProt Q8TD08); type: binding; conditions: Compound Concentration 10 µM
T2 construct: purchased KINOMEscan
T2 sequence (Q8TD08 1-544): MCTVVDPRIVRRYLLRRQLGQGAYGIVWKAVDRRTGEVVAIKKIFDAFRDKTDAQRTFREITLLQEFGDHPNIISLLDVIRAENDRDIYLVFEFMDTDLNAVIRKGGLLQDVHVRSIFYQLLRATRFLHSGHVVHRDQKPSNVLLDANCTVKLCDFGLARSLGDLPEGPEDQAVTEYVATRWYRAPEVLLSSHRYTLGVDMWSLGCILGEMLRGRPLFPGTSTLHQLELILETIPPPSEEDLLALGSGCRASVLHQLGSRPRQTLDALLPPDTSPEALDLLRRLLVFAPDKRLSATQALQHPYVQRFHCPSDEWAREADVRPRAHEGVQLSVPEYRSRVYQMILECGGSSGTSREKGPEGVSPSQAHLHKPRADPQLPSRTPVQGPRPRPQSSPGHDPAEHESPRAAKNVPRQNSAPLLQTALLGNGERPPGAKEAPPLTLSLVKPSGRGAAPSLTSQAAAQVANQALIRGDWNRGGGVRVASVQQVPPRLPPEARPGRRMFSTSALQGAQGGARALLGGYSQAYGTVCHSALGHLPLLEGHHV
Text: as §1

Compound | KINOMEscan: FLT3(R834Q) [1] | KINOMEscan: ERK8 [2]
COc1cc(C(=O)N2CCC(N3CCN(C)CC3)CC2)ccc1Nc1ncc2c(n1)N(C)c1ccccc1C(=O)N2C [15 (LRRK2-IN-1)] | 100 | 100
CCOc1cc(C(=O)N2CCC(N3CCN(C)CC3)CC2)ccc1Nc1ncc2c(n1)N(C1CCCC1)c1ccccc1C(=O)N2C [Compound 26] | 100 | 100
COc1cc(C(=O)N2CCC(N3CCN(C)CC3)CC2)ccc1Nc1ncc2c(n1)N1CCc3cccc(c31)C(=O)N2C [Compound 24] | 100 | –
COc1cc(C(=O)N2CCC(N3CCN(C)CC3)CC2)ccc1Nc1ncc2c(n1)N(C1CCCC1)c1ccccc1C(=O)N2C [Compound 25, 11-cyclopentyl-2-((2-methoxy-4-(4-(4-methylpiperazin-1-yl)piperidine-1-carbonyl)phenyl)amino)-5-methyl-5H-benzo[e]pyrimido[5,4-b][1,4]diazepin-6(11H)-one] | 100 | 99
